This data set in a line: Human HepG2 cell viability assay in 384 well format. It counts as toxicity, cell-based. The arrangement: dose 125 nL, time 70.5 hour; cytotoxicity at 70.5 h: concentration not given beside the values. Conditions: HepG2 cells, read-out: Inhibition.

The text below walks through data of ChEMBL document CHEMBL3507680, “University of Dundee, Gates Library screen for HepG2 cell viability”.

For `CC(C)CC(NC(=O)c1ccn(C)c(=O)c1)c1cccs1` (centres undefined), the cytotoxicity at 70.5 h stood at 33.9%.
As to `Cn1ccc(C(=O)N2CCN(Cc3ccccc3F)CC2)cc1=O`, the cytotoxicity at 70.5 h is -0.663%.
`CC(C)CNC(=O)CNC(=O)Nc1cccc(Cl)c1-n1cccn1`: the cytotoxicity at 70.5 h came to 1.42%.
In the case of `N#CCCN(CC1CC1)Cn1cc(Cl)cn1` it was 34.6%; in that of `CN(C)C(=O)CCNC(=O)Nc1cccc(Cl)c1-n1cccn1`, 1.32%.
Regarding `CC(C)CC(CC(C)C)NC(=O)c1ccn(C)c(=O)c1`, the cytotoxicity at 70.5 h was 1.9%.
For the compound `O=C(NCCC1CCN(CC(F)(F)F)CC1)C1CCOC1` (centres undefined), the cytotoxicity at 70.5 h came to 3.01%.
In the case of `O=C(Nc1cccn(Cc2ccc(F)cc2)c1=O)c1cnc[nH]1` it was -3.1%; in that of `CC(=O)NS(=O)(=O)c1ccc(F)cc1C(F)(F)F`, 33.1%; in that of `CS(=O)(=O)c1ccccc1NCc1ccc(Cn2ccnc2)cc1`, -0.289%.
In the case of `COc1cccc(S(=O)(=O)Cc2noc(CC(C)C)n2)c1` it was -4.78%; in that of `CN(C)C(CNCc1nc(-c2ccsc2)no1)c1cccc(F)c1` (centres undefined), -10.2%; in that of `COc1cccc(C2=CCN(CCN3CCCC3=O)CC2)c1`, -7.88%.
In the case of `Cc1oc(-c2ccsc2)nc1CNC(C)Cn1cccn1` (centres undefined) it was 11.6%.
Consider `CN1CC(C(=O)NCc2cccnc2OCC(F)(F)F)CC1=O` (centres undefined), for which the cytotoxicity at 70.5 h was -2.61%.
As for `CN(CCS(=O)(=O)c1cc(Cl)ccc1Cl)CC(N)=O`, the cytotoxicity at 70.5 h was -0.37%.
In the case of `CCOC(=O)C1CCN(C(=O)Cc2c(C)nc(C)[nH]c2=O)CC1` it was 12.3%; in that of `CC(C)N(CC(N)=O)Cc1cccc(Br)c1`, 1.5%; in that of `Cc1nc(-c2ccc(Cl)s2)sc1C(=O)N(C)CC(N)=O`, 11.9%.
`CC(C)N(CC(N)=O)Cc1cccc(C(F)(F)F)c1`: the cytotoxicity at 70.5 h is -1.84%.
With `Cc1nc(C)c(CC(=O)N2CCN(CC(C)C)CC2)c(=O)[nH]1`, the cytotoxicity at 70.5 h was 2.2%.
In the case of `CCOC(=O)N1CCN(C(=O)Cc2c(C)nc(C)[nH]c2=O)CC1` it was 13.6%.
Turning to `CCc1ccc(C(C)NC(=O)c2ccc(CS(C)(=O)=O)o2)cc1` (centres undefined), the cytotoxicity at 70.5 h was -4.79%.
For `Cc1cccc(C)c1NCc1noc(C2CC2)n1`, the cytotoxicity at 70.5 h worked out at 0.946%.
As for `c1ccc2c(NCC3(N4CCOCC4)CCSC3)ncnc2c1` (centres undefined), the cytotoxicity at 70.5 h turned out to be 2.49%.
In the case of `Cc1nc(S(=O)(=O)CCn2cccn2)n(C2CCCC2)c1C` it was 10.5%; in that of `Cc1nc(S(=O)(=O)CCn2cccn2)n(CC2CCCO2)c1C` (centres undefined), -2.87%; in that of `CCCN(C)CC1CCN(c2ncc(Br)cn2)C1` (centres undefined), 2.13%.
In the case of `CC(C1CC1)N(CC(=O)NC(=O)NC1CC1)C1CC1` (centres undefined) it was -3.17%.
In the case of `Cc1oc(-c2ccsc2)nc1CNCCn1cccn1` it was -5.13%; in that of `Cc1ncsc1CNC(=O)N(Cc1ccccc1)CC(C)(C)O`, -3.17%; in that of `Cc1cccc(C(C)CNC(=O)N2CCOCC3(CCOCC3)C2)c1` (centres undefined), -4.47%.
As to `COc1cc(I)c(Cl)cc1C(=O)N(C)C`, the cytotoxicity at 70.5 h was -20.5%.
Consider `CCOc1cc(CNC(=O)c2cnn(CC)c2C(F)(F)F)ccn1`, for which the cytotoxicity at 70.5 h was -12.6%.
As for `CCOc1ccccc1CNC(=O)c1cnn(CC)c1C(F)(F)F`, the cytotoxicity at 70.5 h amounted to 17.5%.
In the case of `CNC(=O)CN(C)C(=O)c1cc(Cl)c(I)cc1OC` it was -18.4%; in that of `Cc1ccc(C)n1-c1c(C(=O)NCC(C)Cn2cccn2)cnn1C` (centres undefined), -21.4%.
In the case of `CN(Cc1nnc(C2CC2)n1C)S(=O)(=O)Cc1ccccc1F` it was -20.7%.
Regarding `CN(Cc1nnc(C2CC2)n1C)S(=O)(=O)c1ccc(F)c(C#N)c1`, the cytotoxicity at 70.5 h was -23.4%.
In the case of `CN(Cc1nnc(-c2ccco2)o1)C(C(N)=O)c1cccc(F)c1` (centres undefined) it was 0.238%; in that of `Cn1nnnc1SCC1Cc2ccccc2O1` (centres undefined), 26.1%.
In the case of `COCCCn1ccc(NS(=O)(=O)c2cc(C)c(F)cc2F)n1` it was -15.7%; in that of `Cc1cnccc1CCNC(=O)Nc1cnc(N(C)C)nc1`, 25.9%.
In the case of `COc1ccccc1CC(=O)NC1CCCc2cn[nH]c21` (centres undefined) it was -0.577%; in that of `Cc1ccc(CCCC(=O)N2CCN(C3CCCN(C)C3)CC2)s1` (centres undefined), -2.97%; in that of `CC(=O)c1c(F)cccc1NCC(O)C1CC1` (centres undefined), -19.1%.
Consider `CN(Cc1nnc(C2CC2)n1C)S(=O)(=O)c1ccccc1C#N`, for which the cytotoxicity at 70.5 h was -15.5%.
In the case of `Cc1cnc(CN(Cc2cccc(O)c2)CC2CC2)cn1` it was -6.41%.
In the case of `Cc1cnc(CN(Cc2ccccc2)CC2CCOCC2)cn1` it was -3.35%.
Consider `CC(=O)c1c(F)cccc1NCC(O)c1ccc(F)c(F)c1` (centres undefined), for which the cytotoxicity at 70.5 h is -12.6%.
In the case of `CCC1CN(C(=O)COc2ccc(NC(C)=O)cc2)CCO1` (centres undefined) it was 13.7%.
In the case of `CN1CCC(CNC(=O)c2ccc(O)nc2)c2ccccc21` (centres undefined) it was 1.07%; in that of `CC(C)CCC(=O)Nc1ncn(CC(=O)N2CCCCCC2)n1`, -2.61%; in that of `CCn1c(CN2CCCC(Cn3cncn3)C2)nc2c(F)cccc21` (centres undefined), 1.73%.
For the compound `CCc1noc(CN(C)CCC(=O)Nc2ccc(C#N)c(Cl)c2)n1`, the cytotoxicity at 70.5 h was found to be 0.733%.
In the case of `CCn1c(CN2CCOC(Cn3cncn3)C2)nc2c(F)cccc21` (centres undefined) it was 15.4%; in that of `COc1ccc(C(=O)NS(C)(=O)=O)cc1-c1ccccc1`, -1.59%.
In the case of `Cc1nc(-c2cccc(C(=O)N(C)C)c2)cs1` it was 1.56%; in that of `COc1ccccc1C(C)CNC(=O)c1[nH]ncc1Br` (centres undefined), 3.61%; in that of `Cc1ccc2c(c1)C(NC1CCN(C)CC1)CCCO2` (centres undefined), 15.4%.
With `Cc1ccc(CNCCCNS(C)(=O)=O)c(Br)c1`, the cytotoxicity at 70.5 h came out at 4%.
In the case of `O=S(=O)(Nc1ccon1)c1cc(Cl)cc2c1OCC2` it was 1.46%; in that of `CCC(C)(NCc1nc(C)c(C)o1)c1nccs1` (centres undefined), 15.6%.
Turning to `COc1ccc(CN2CCC3(CC(C(=O)NCC(C)C)=NO3)C2)cc1` (centres undefined), the cytotoxicity at 70.5 h was -6.44%.
`CC(C)CNC(=O)C1=NOC2(CCN(Cc3ccc(C(C)C)cc3)C2)C1` (centres undefined): the cytotoxicity at 70.5 h is -1.12%.
In the case of `CN(C)C(=O)N1Cc2nnn(CC3CC3)c2C(COCC2CC2)C1` (centres undefined) it was -6.92%; in that of `O=S(=O)(C1CC1)N1CCc2c(CN3CCOCC3)cncc2C1`, -2.38%; in that of `CS(=O)(=O)N1CCOCC12CCN(Cc1ccoc1)CC2`, -5.63%.
As for `CC(C)N(CC(=O)O)Cc1cccc(Br)c1`, the cytotoxicity at 70.5 h is 2.77%.
In the case of `O=C(O)CN1CCC(C(F)(F)F)CC1` it was -2.76%; in that of `CC(C)CN1CCO[C@H]2CCN(c3cnccn3)CC[C@@H]21`, -8.81%.
Regarding `Cc1csc([C@@H]2C[C@H]3CN(c4ncc(F)cn4)C[C@H]3O2)n1`, the cytotoxicity at 70.5 h is -2.24%.
On to `CS(=O)(=O)N1CCOCC12CCN(Cc1ccc(F)cc1)CC2`, for which the cytotoxicity at 70.5 h was -6.42%.
On to `Cc1ccc(N2Cc3cnn(C)c3C(COCC3CC3)C2)nn1` (centres undefined), for which the cytotoxicity at 70.5 h was -4.86%.
